# Experimental data as given in PubChem BioAssay (NCI).
#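 96-well plates; 48 h exposure; 5 concentrations. Endpoints by linear interpolation between flanking doses. Not reached: highest tested concentration assigned. TGI marks complete inhibition of growth.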
# Legend:
# Assay in all cases: DTP human tumour cell line panel, 48 h
# 786-0 renal = test system: 786-0 renal
# A549 NSCLC = test system: A549 NSCLC
# ACHN renal = test system: ACHN renal
# CAKI-1 renal = test system: CAKI-1 renal
# CCRF-CEM leukemia = test system: CCRF-CEM leukemia
# COLO 205 colon = test system: COLO 205 colon
# DLD-1 colon = test system: DLD-1 colon
# DMS 273 small cell lung = test system: DMS 273 small cell lung
# EKVX NSCLC = test system: EKVX NSCLC
# HCC-2998 colon = test system: HCC-2998 colon
# HCT-116 colon = test system: HCT-116 colon
# HCT-15 colon = test system: HCT-15 colon
# HL-60(TB) leukemia = test system: HL-60(TB) leukemia
# HOP-18 NSCLC = test system: HOP-18 NSCLC
# HOP-62 NSCLC = test system: HOP-62 NSCLC
# HOP-92 NSCLC = test system: HOP-92 NSCLC
# HT29 colon = test system: HT29 colon
# IGROV1 ovarian = test system: IGROV1 ovarian
# K-562 leukemia = test system: K-562 leukemia
# KM12 colon = test system: KM12 colon
# KM20L2 colon = test system: KM20L2 colon
# LOX IMVI melanoma = test system: LOX IMVI melanoma
# LXFL 529 NSCLC = test system: LXFL 529 NSCLC
# M14 melanoma = test system: M14 melanoma
# M19-MEL melanoma = test system: M19-MEL melanoma
# MALME-3M melanoma = test system: MALME-3M melanoma
# MOLT-4 leukemia = test system: MOLT-4 leukemia
# NCI-H226 lung = test system: NCI-H226 lung
# NCI-H23 lung = test system: NCI-H23 lung
# NCI-H460 lung = test system: NCI-H460 lung
# NCI-H522 lung = test system: NCI-H522 lung
# OVCAR-3 ovarian = test system: OVCAR-3 ovarian
# OVCAR-4 ovarian = test system: OVCAR-4 ovarian
# OVCAR-5 ovarian = test system: OVCAR-5 ovarian
# OVCAR-8 ovarian = test system: OVCAR-8 ovarian
# RXF 393 renal = test system: RXF 393 renal
# RXF-631 renal = test system: RXF-631 renal
# SF-268 CNS = test system: SF-268 CNS
# SF-295 CNS = test system: SF-295 CNS
# SF-539 CNS = test system: SF-539 CNS
# SK-MEL-2 melanoma = test system: SK-MEL-2 melanoma
# SK-MEL-28 melanoma = test system: SK-MEL-28 melanoma
# SK-MEL-5 melanoma = test system: SK-MEL-5 melanoma
# SK-OV-3 ovarian = test system: SK-OV-3 ovarian
# SN12C renal = test system: SN12C renal
# SNB-19 CNS = test system: SNB-19 CNS
# SNB-75 CNS = test system: SNB-75 CNS
# SNB-78 CNS = test system: SNB-78 CNS
# SR leukemia = test system: SR leukemia
# SW-620 colon = test system: SW-620 colon
# TK-10 renal = test system: TK-10 renal
# U251 CNS = test system: U251 CNS
# UACC-257 melanoma = test system: UACC-257 melanoma
# UACC-62 melanoma = test system: UACC-62 melanoma
# UO-31 renal = test system: UO-31 renal
# XF 498 CNS = test system: XF 498 CNS
# A498 renal = test system: A498 renal
# DMS 114 small cell lung = test system: DMS 114 small cell lung
# RPMI-8226 leukemia = test system: RPMI-8226 leukemia
compound,measurement,setting,value
CCOc1ccccc1NC(=O)CC1Sc2ccccc2NC1=O (stereo not drawn),TGI,786-0 renal,> 100 µM
same,TGI,A549 NSCLC,> 100 µM
same,TGI,ACHN renal,> 100 µM
same,TGI,CAKI-1 renal,> 100 µM
same,TGI,CCRF-CEM leukemia,> 100 µM
same,TGI,COLO 205 colon,> 100 µM
same,TGI,DLD-1 colon,> 100 µM
same,TGI,DMS 273 small cell lung,> 100 µM
same,TGI,EKVX NSCLC,> 100 µM
same,TGI,HCC-2998 colon,> 100 µM
same,TGI,HCT-116 colon,> 100 µM
same,TGI,HCT-15 colon,> 100 µM
same,TGI,HL-60(TB) leukemia,67.9 µM
same,TGI,HOP-18 NSCLC,> 100 µM
same,TGI,HOP-62 NSCLC,> 100 µM
same,TGI,HOP-92 NSCLC,76.8 µM
same,TGI,HT29 colon,> 100 µM
same,TGI,IGROV1 ovarian,> 100 µM
same,TGI,K-562 leukemia,> 100 µM
same,TGI,KM12 colon,> 100 µM
same,TGI,KM20L2 colon,> 100 µM
same,TGI,LOX IMVI melanoma,> 100 µM
same,TGI,LXFL 529 NSCLC,> 100 µM
same,TGI,M14 melanoma,> 100 µM
same,TGI,M19-MEL melanoma,> 100 µM
same,TGI,MALME-3M melanoma,> 100 µM
same,TGI,MOLT-4 leukemia,> 100 µM
same,TGI,NCI-H226 lung,> 100 µM
same,TGI,NCI-H23 lung,> 100 µM
same,TGI,NCI-H460 lung,> 100 µM
same,TGI,NCI-H522 lung,73.7 µM
same,TGI,OVCAR-3 ovarian,> 100 µM
same,TGI,OVCAR-4 ovarian,> 100 µM
same,TGI,OVCAR-5 ovarian,> 100 µM
same,TGI,OVCAR-8 ovarian,> 100 µM
same,TGI,RXF 393 renal,> 100 µM
same,TGI,RXF-631 renal,> 100 µM
same,TGI,SF-268 CNS,> 100 µM
same,TGI,SF-295 CNS,> 100 µM
same,TGI,SF-539 CNS,> 100 µM
same,TGI,SK-MEL-2 melanoma,> 100 µM
same,TGI,SK-MEL-28 melanoma,> 100 µM
same,TGI,SK-MEL-5 melanoma,86.6 µM
same,TGI,SK-OV-3 ovarian,> 100 µM
same,TGI,SN12C renal,> 100 µM
same,TGI,SNB-19 CNS,> 100 µM
same,TGI,SNB-75 CNS,> 100 µM
same,TGI,SNB-78 CNS,> 100 µM
same,TGI,SR leukemia,75.7 µM
same,TGI,SW-620 colon,> 100 µM
same,TGI,TK-10 renal,> 100 µM
same,TGI,U251 CNS,> 100 µM
same,TGI,UACC-257 melanoma,> 100 µM
same,TGI,UACC-62 melanoma,> 100 µM
same,TGI,UO-31 renal,> 100 µM
same,TGI,XF 498 CNS,> 100 µM
COC(=O)C(CC(=O)c1ccccc1)c1ccccc1NC(C)=O (stereo not drawn),TGI,786-0 renal,> 100 µM
same,TGI,A498 renal,> 100 µM
same,TGI,A549 NSCLC,> 100 µM
same,TGI,ACHN renal,> 100 µM
same,TGI,CAKI-1 renal,> 100 µM
same,TGI,CCRF-CEM leukemia,> 100 µM
same,TGI,COLO 205 colon,> 100 µM
same,TGI,DLD-1 colon,> 100 µM
same,TGI,DMS 114 small cell lung,> 100 µM
same,TGI,EKVX NSCLC,> 100 µM
same,TGI,HCC-2998 colon,> 100 µM
same,TGI,HCT-116 colon,> 100 µM
same,TGI,HCT-15 colon,> 100 µM
same,TGI,HL-60(TB) leukemia,> 100 µM
same,TGI,HOP-18 NSCLC,> 100 µM
same,TGI,HOP-62 NSCLC,> 100 µM
same,TGI,HOP-92 NSCLC,> 100 µM
same,TGI,HT29 colon,> 100 µM
same,TGI,IGROV1 ovarian,> 100 µM
same,TGI,K-562 leukemia,> 100 µM
same,TGI,KM12 colon,> 100 µM
same,TGI,KM20L2 colon,> 100 µM
same,TGI,LOX IMVI melanoma,> 100 µM
same,TGI,LXFL 529 NSCLC,> 100 µM
same,TGI,M14 melanoma,> 100 µM
same,TGI,M19-MEL melanoma,> 100 µM
same,TGI,MALME-3M melanoma,> 100 µM
same,TGI,MOLT-4 leukemia,> 100 µM
same,TGI,NCI-H226 lung,> 100 µM
same,TGI,NCI-H23 lung,> 100 µM
same,TGI,NCI-H460 lung,> 100 µM
same,TGI,NCI-H522 lung,> 100 µM
same,TGI,OVCAR-3 ovarian,> 100 µM
same,TGI,OVCAR-4 ovarian,> 100 µM
same,TGI,OVCAR-5 ovarian,> 100 µM
same,TGI,OVCAR-8 ovarian,> 100 µM
same,TGI,RPMI-8226 leukemia,> 100 µM
same,TGI,RXF-631 renal,> 100 µM
same,TGI,SF-268 CNS,> 100 µM
same,TGI,SF-295 CNS,> 100 µM
same,TGI,SF-539 CNS,> 100 µM
same,TGI,SK-MEL-28 melanoma,> 100 µM
same,TGI,SK-MEL-5 melanoma,> 100 µM
same,TGI,SK-OV-3 ovarian,> 100 µM
same,TGI,SN12C renal,> 100 µM
same,TGI,SNB-19 CNS,> 100 µM
same,TGI,SNB-75 CNS,> 100 µM
same,TGI,SNB-78 CNS,> 100 µM
same,TGI,SR leukemia,> 100 µM
same,TGI,SW-620 colon,> 100 µM
same,TGI,TK-10 renal,> 100 µM
same,TGI,U251 CNS,> 100 µM
same,TGI,UACC-257 melanoma,> 100 µM
same,TGI,UACC-62 melanoma,> 100 µM
same,TGI,UO-31 renal,> 100 µM
same,TGI,XF 498 CNS,> 100 µM
CC(=O)N1CCc2[nH]c3ccccc3c2CC1,TGI,786-0 renal,> 100 µM
same,TGI,A498 renal,> 100 µM
same,TGI,A549 NSCLC,> 100 µM
same,TGI,ACHN renal,> 100 µM
same,TGI,CAKI-1 renal,> 100 µM
same,TGI,CCRF-CEM leukemia,> 100 µM
same,TGI,COLO 205 colon,> 100 µM
same,TGI,DLD-1 colon,> 100 µM
same,TGI,DMS 114 small cell lung,> 100 µM
same,TGI,DMS 273 small cell lung,> 100 µM
same,TGI,EKVX NSCLC,> 100 µM
same,TGI,HCC-2998 colon,> 100 µM
same,TGI,HCT-116 colon,> 100 µM
same,TGI,HCT-15 colon,> 100 µM
same,TGI,HL-60(TB) leukemia,> 100 µM
same,TGI,HOP-18 NSCLC,> 100 µM
same,TGI,HOP-62 NSCLC,> 100 µM
same,TGI,HOP-92 NSCLC,> 100 µM
same,TGI,HT29 colon,> 100 µM
same,TGI,IGROV1 ovarian,> 100 µM
same,TGI,K-562 leukemia,> 100 µM
same,TGI,KM12 colon,> 100 µM
same,TGI,KM20L2 colon,> 100 µM
same,TGI,LOX IMVI melanoma,> 100 µM
same,TGI,LXFL 529 NSCLC,> 100 µM
same,TGI,M14 melanoma,> 100 µM
same,TGI,M19-MEL melanoma,> 100 µM
same,TGI,MALME-3M melanoma,> 100 µM
same,TGI,MOLT-4 leukemia,> 100 µM
same,TGI,NCI-H23 lung,> 100 µM
same,TGI,NCI-H460 lung,> 100 µM
same,TGI,OVCAR-3 ovarian,> 100 µM
same,TGI,OVCAR-4 ovarian,> 100 µM
same,TGI,OVCAR-5 ovarian,> 100 µM
same,TGI,OVCAR-8 ovarian,> 100 µM
same,TGI,RPMI-8226 leukemia,> 100 µM
same,TGI,RXF-631 renal,> 100 µM
same,TGI,SF-295 CNS,> 100 µM
same,TGI,SF-539 CNS,> 100 µM
same,TGI,SK-MEL-2 melanoma,> 100 µM
same,TGI,SK-MEL-28 melanoma,> 100 µM
same,TGI,SK-MEL-5 melanoma,> 100 µM
same,TGI,SK-OV-3 ovarian,> 100 µM
same,TGI,SNB-75 CNS,98.9 µM
same,TGI,SNB-78 CNS,> 100 µM
same,TGI,SW-620 colon,> 100 µM
same,TGI,TK-10 renal,> 100 µM
same,TGI,U251 CNS,> 100 µM
same,TGI,UACC-257 melanoma,> 100 µM
same,TGI,UACC-62 melanoma,> 100 µM
same,TGI,XF 498 CNS,> 100 µM
